Series [1] concerns healthy male volunteers. As to the kind of experiment: Single ascending dose Phase 1A study. Type of series: in vivo, human. As to conditions: 6 ascending single doses, placebo-controlled. The text has this:
A randomized, double-blind, placebo-controlled, cross-over, single dose, safety, tolerability and pharmacokinetic study of 6 ascending doses of the compound of Formula (Ia) was undertaken in two cohorts of healthy male volunteers. A total of eighteen eligible healthy mail volunteers were recruited utilizing an alternating panel design. The first cohort of nine subjects (Cohort 1) was sequentially enrolled into 3 of 6 dosing periods (Dose Levels 1, 3, and 5). The remaining cohort of nine subjects (Cohort 2) was enrolled in the other 3 dosing periods (Dose Levels 2, 4, and 6). Within each dosing period, subjects were randomly assigned 2:1 to the compound of Formula (I) (n=6) or placebo (n=3). Each subject received one dose of placebo and two different doses of the compound of Formula (I) over the course of their participation in all three dosing periods. Subjects were equally randomized to one of 3 possible sequences, namely 1) placebo, active, active, 2) active, placebo, active, and 3) active, active, placebo.

Series [2] addresses dTRPA1 (Canis lupus familiaris, UniProt A0A8I3Q1Q7). As to the kind of experiment: Whole-cell patch clamp inhibition of dTRPA1. It counts as cell-based, Dog. As to conditions: dTRPA1, 10 micromolar AITC activation; read-out: IC50 Inward current. Here is the method: (§1) Data for TRPA1 inhibition and the selectivity of TRPA1 inhibition was obtained by this method for the compound of Formula (Ia) and included in Table 1 and Table 2. All currents were recorded in whole-cell configuration using EPC-9 and EPC-10 amplifiers and Patchmaster software (HEKA). […] The standard pipette solution consisted of 140 mM CsAsp, 10 mM EGTA, 10 mM HEPES, 2.27 mM MgCl2, 1.91 mM CaCl2, 4 mM MgATP, and 0.1-0.3 mM Na2GTP, with pH adjusted to 7.2 with CsOH. In addition, a solution containing 145 mM CsCl, 10 mM HEPES, 10 mM EGTA and 1 mM MgCl2 (pH 7.2 adjusted with CsOH) can be used. The standard bath solution contained 150 mM NaCl, 10 mM HEPES, 10 mM glucose, 4.5 mM KCl, 1 mM EGTA, 3 mM MgCl2, with pH adjusted to 7.4 with NaOH. In some instances, 2 mM CaCl2 was added in place of EGTA and the concentration of MgCl2 was reduced to 1 mM.
(§2) Data were collected either by continuous recordings at −60 mV or by applying voltage ramps from a holding potential of 0 mV every 4 s. […] Inward and outward currents were analyzed from the ramps at −80 and 80 mV, respectively. […]
(§3) Solutions were switched using a gravity-fed continuous focal perfusion system. […] Temperatures were confirmed using a thermistor (Warner Instruments, TA-29), with temperatures at the recorded cell estimated to be within +/−2° C. of those reported. […]
On the technique in general: The patch-clamp technique gives a direct electrical read-out from membranes.

Series [3] has as its target T1, hTRPV3 (Homo sapiens, UniProt Q8NET8).
T1 sequence (Q8NET8 1-790): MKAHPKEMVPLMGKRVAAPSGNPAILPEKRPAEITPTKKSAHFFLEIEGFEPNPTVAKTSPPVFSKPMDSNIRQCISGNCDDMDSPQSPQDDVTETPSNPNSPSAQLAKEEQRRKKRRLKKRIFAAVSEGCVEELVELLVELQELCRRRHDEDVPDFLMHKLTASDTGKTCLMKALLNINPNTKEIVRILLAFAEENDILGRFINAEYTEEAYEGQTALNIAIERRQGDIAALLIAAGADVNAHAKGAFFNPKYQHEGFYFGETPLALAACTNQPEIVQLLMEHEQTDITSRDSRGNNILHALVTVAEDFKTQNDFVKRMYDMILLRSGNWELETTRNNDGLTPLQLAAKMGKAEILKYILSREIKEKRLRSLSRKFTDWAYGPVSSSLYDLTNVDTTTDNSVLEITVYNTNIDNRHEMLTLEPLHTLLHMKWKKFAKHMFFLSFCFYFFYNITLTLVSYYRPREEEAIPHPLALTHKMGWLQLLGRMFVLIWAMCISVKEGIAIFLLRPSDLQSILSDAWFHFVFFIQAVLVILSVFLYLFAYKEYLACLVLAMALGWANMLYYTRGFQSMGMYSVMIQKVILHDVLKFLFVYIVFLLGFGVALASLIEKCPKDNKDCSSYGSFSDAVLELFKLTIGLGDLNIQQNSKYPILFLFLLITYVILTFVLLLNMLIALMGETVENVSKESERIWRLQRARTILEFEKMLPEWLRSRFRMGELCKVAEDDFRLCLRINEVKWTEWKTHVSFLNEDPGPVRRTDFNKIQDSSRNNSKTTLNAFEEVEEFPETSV
As to the kind of experiment: Patch clamp selectivity, hTRPV3. It counts as cell-based. As to conditions: hTRPV3 vs TRPA1. Here is the method: as §1, §2, §3

Series [4] deals with formalin-induced pain behavior. As to the kind of experiment: Formalin-induced pain behavior in vivo rodent model. Also on record: species or system rat. As to conditions: i.p. administration, in words. The text has this: The data shown in Tables 3a, 3b, and 3c and FIG. 2 were obtained by administering a pharmaceutical composition comprising the compound of Formula (Ia) to rodents in the formalin-induced pain duration at various doses according to Example 5. Specifically, the data in Tables 3a, 3b, and 3c and FIG. 2 were obtained by intraperitoneal (i.p.) administration of compositions containing different concentrations of the compound of Formula (Ia), a comparator composition containing recited amounts of the comparator compound (e.g., 150 mg/kg of the comparator compound of Formula (II) in Table 3a) and a control composition containing the vehicle (e.g., without the compound of Formula (Ia) or a comparator compound).
The compound of Formula (Ia) and the comparator compounds of Formula (II) and Formula (III) were tested in the formalin-induced pain test reported by Dubuisson et al., Pain 1977 December; 4(2):161-74 (incorporated herein by reference in its entirety). Dubuisson et al. (1977) describe a method for assessing pain and analgesia in rats and cats. Briefly, dilute formalin (50 μL of 3% formalin) is injected into the plantar surface of the hind paw. […] The individual responsible for counting the pain behaviors in a particular study is blinded to the treatment groups.
Rats were treated with the HCl salt of Compound (Ia) at various doses (3, 10, 30, and 50 mg/kg, IP) or with the vehicle (IP).

Chain of dTRPA1 (A0A8I3Q1Q7 1-1118): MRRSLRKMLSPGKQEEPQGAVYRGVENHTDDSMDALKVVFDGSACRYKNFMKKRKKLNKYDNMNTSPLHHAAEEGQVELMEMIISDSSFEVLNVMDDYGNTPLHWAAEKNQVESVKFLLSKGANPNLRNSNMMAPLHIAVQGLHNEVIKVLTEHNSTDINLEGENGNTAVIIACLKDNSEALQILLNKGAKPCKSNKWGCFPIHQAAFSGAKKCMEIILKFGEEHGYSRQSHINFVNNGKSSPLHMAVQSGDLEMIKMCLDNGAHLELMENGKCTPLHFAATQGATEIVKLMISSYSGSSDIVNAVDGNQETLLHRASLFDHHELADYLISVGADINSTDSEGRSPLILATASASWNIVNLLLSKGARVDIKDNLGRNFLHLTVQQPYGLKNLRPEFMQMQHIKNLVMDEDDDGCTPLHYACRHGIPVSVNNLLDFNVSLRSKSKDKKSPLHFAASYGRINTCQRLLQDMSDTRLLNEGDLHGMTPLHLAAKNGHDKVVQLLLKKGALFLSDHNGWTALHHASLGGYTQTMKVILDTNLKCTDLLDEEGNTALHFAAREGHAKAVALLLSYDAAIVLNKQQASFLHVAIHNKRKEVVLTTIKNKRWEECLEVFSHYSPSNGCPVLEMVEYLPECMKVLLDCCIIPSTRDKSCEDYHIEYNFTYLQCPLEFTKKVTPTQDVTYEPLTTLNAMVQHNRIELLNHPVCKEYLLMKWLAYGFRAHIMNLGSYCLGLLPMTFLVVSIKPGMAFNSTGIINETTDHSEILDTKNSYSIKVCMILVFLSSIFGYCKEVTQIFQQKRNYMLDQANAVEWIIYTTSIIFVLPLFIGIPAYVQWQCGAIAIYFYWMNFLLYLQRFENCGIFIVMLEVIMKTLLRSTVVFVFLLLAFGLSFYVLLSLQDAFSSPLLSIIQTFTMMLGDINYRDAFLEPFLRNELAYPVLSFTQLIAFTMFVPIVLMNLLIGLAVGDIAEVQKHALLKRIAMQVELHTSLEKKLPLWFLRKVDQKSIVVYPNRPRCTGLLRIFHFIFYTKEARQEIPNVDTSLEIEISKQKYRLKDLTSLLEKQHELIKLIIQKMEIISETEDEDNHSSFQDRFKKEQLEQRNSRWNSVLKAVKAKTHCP

Consider `C[C@H]1CCCN1c1ncc(-c2cccc(NC(=O)Cn3cnc4c3c(=O)n(C)c(=O)n4C)n2)cn1` [Formula (Ia)], for which the safety signals result in series [1] is “no safety signals seen that were attributable to the compound”. Besides, in series [2], the half-inhibitory concentration (IC50) is approximately 100 nM. In addition, the “Fold Selectivity Compared to TRPA1” value in series [3] is on record as more than 300 Fold. Besides, the “duration of pain behavior compared with vehicle” value in series [4] is reported as “shorter durations of pain behavior than those treated with the vehicle”.

As a reminder, the IC50 is the concentration that gives 50% inhibition.

The values are drawn from patent publication US9193729B2, “Inhibiting transient receptor potential ion channel TRPA1” (Cubist Pharmaceuticals, Inc., priority 2011, dated 2015).
